Experimental data from PubChem BioAssay (NCI).
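Values below derive from 48-hour exposures of cells grown in 96-well plates, with endpoints linearly interpolated between the two concentrations bracketing the appropriate inhibition level. The concentration for full growth arrest is given as TGI.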

What was measured:
Assay in all cases: growth of human tumour cells (NCI), 48 h
[1] = system: 786-0 renal
[2] = system: A549 NSCLC
[3] = system: ACHN renal
[4] = system: CAKI-1 renal
[5] = system: CCRF-CEM leukemia
[6] = system: COLO 205 colon
[7] = system: DU-145 prostate
[8] = system: EKVX NSCLC
[9] = system: HCC-2998 colon
[10] = system: HCT-116 colon
[11] = system: HCT-15 colon
[12] = system: HL-60(TB) leukemia
[13] = system: HOP-62 NSCLC
[14] = system: HS 578T breast
[15] = system: HT29 colon
[16] = system: IGROV1 ovarian
[17] = system: K-562 leukemia
[18] = system: KM12 colon
[19] = system: LOX IMVI melanoma
[20] = system: M14 melanoma
[21] = system: MALME-3M melanoma
[22] = system: MCF7 breast
[23] = system: MDA-MB-231 breast
[24] = system: MDA-MB-435
[25] = system: MDA-N
[26] = system: MOLT-4 leukemia
[27] = system: NCI-H226 lung
[28] = system: NCI-H23 lung
[29] = system: NCI-H460 lung
[30] = system: NCI-H522 lung
[31] = system: NCI/ADR-RES ovarian
[32] = system: OVCAR-3 ovarian
[33] = system: OVCAR-4 ovarian
[34] = system: OVCAR-5 ovarian
[35] = system: OVCAR-8 ovarian
[36] = system: PC-3 prostate
[37] = system: RPMI-8226 leukemia
[38] = system: RXF 393 renal
[39] = system: SF-268 CNS
[40] = system: SF-295 CNS
[41] = system: SF-539 CNS
[42] = system: SK-MEL-2 melanoma
[43] = system: SK-MEL-28 melanoma
[44] = system: SK-MEL-5 melanoma
[45] = system: SK-OV-3 ovarian
[46] = system: SN12C renal
[47] = system: SNB-19 CNS
[48] = system: SNB-75 CNS
[49] = system: SR leukemia
[50] = system: SW-620 colon
[51] = system: T-47D breast
[52] = system: U251 CNS
[53] = system: UACC-257 melanoma
[54] = system: UACC-62 melanoma
[55] = system: UO-31 renal
[56] = system: A498 renal
[57] = system: HOP-92 NSCLC
[58] = system: TK-10 renal

C=CCNC(=S)/N=C\C(C(=O)OCC)=C(/O)C(=O)OCC
TGI [1]: > 100 µM
TGI [2]: > 100 µM
TGI [3]: > 100 µM
TGI [4]: > 100 µM
TGI [5]: > 100 µM
TGI [6]: > 100 µM
TGI [7]: > 100 µM
TGI [8]: > 100 µM
TGI [9]: > 100 µM
TGI [10]: > 100 µM
TGI [11]: > 100 µM
TGI [12]: > 100 µM
TGI [13]: > 100 µM
TGI [14]: > 100 µM
TGI [15]: > 100 µM
TGI [16]: > 100 µM
TGI [17]: > 100 µM
TGI [18]: > 100 µM
TGI [19]: > 100 µM
TGI [20]: > 100 µM
TGI [21]: > 100 µM
TGI [22]: > 100 µM
TGI [23]: > 100 µM
TGI [24]: > 100 µM
TGI [25]: > 100 µM
TGI [26]: > 100 µM
TGI [27]: > 100 µM
TGI [28]: > 100 µM
TGI [29]: > 100 µM
TGI [30]: > 100 µM
TGI [31]: > 100 µM
TGI [32]: > 100 µM
TGI [33]: > 100 µM
TGI [34]: > 100 µM
TGI [35]: > 100 µM
TGI [36]: > 100 µM
TGI [37]: > 100 µM
TGI [38]: > 100 µM
TGI [39]: > 100 µM
TGI [40]: > 100 µM
TGI [41]: > 100 µM
TGI [42]: > 100 µM
TGI [43]: > 100 µM
TGI [44]: > 100 µM
TGI [45]: > 100 µM
TGI [46]: > 100 µM
TGI [47]: > 100 µM
TGI [48]: > 100 µM
TGI [49]: > 100 µM
TGI [50]: > 100 µM
TGI [51]: > 100 µM
TGI [52]: > 100 µM
TGI [53]: > 100 µM
TGI [54]: > 100 µM
TGI [55]: > 100 µM

Cc1ccc(C(=O)CC(O)(C(F)(F)F)C(F)(F)F)cc1[N+](=O)[O-]
TGI [1]: 25.9 µM
TGI [56]: 35.8 µM
TGI [2]: 33 µM
TGI [3]: 28.9 µM
TGI [4]: 4.58 µM
TGI [6]: 36.5 µM
TGI [7]: 13.7 µM
TGI [8]: 31.7 µM
TGI [9]: 12.9 µM
TGI [10]: 12.1 µM
TGI [11]: 13.6 µM
TGI [12]: 4.41 µM
TGI [13]: 29.2 µM
TGI [57]: 22.3 µM
TGI [14]: 42.6 µM
TGI [15]: 4.12 µM
TGI [16]: 11.2 µM
TGI [17]: > 28.2 µM
TGI [18]: 6.31 µM
TGI [19]: 5.22 µM
TGI [20]: 17.9 µM
TGI [21]: 31.8 µM
TGI [22]: 11 µM
TGI [23]: 21.5 µM
TGI [24]: 22.5 µM
TGI [25]: 28.2 µM
TGI [26]: 68.5 µM
TGI [27]: 38.7 µM
TGI [28]: 23.7 µM
TGI [29]: 25.1 µM
TGI [30]: 1.19 µM
TGI [31]: 44.2 µM
TGI [32]: 6.44 µM
TGI [33]: 30.7 µM
TGI [34]: 33.4 µM
TGI [35]: 25.9 µM
TGI [36]: 27.2 µM
TGI [37]: 69.4 µM
TGI [38]: 27.1 µM
TGI [39]: 31.4 µM
TGI [40]: 19.7 µM
TGI [41]: 31.7 µM
TGI [42]: 34 µM
TGI [43]: 23.4 µM
TGI [44]: 30.8 µM
TGI [45]: 32.2 µM
TGI [46]: 25 µM
TGI [47]: 22.6 µM
TGI [48]: 33.2 µM
TGI [49]: 14.3 µM
TGI [50]: 42.8 µM
TGI [51]: 38.9 µM
TGI [58]: 33.3 µM
TGI [52]: 31.2 µM
TGI [53]: 9.39 µM
TGI [54]: 21.9 µM
TGI [55]: 10.6 µM
